{"source": "patent US8263630B2", "about": "“1,2,3-triazoles as 11-beta hydroxysteroid dehydrogenase type I inhibitors” (Bristol-Myers Squibb Company, priority 2008, dated 2012)", "origin": "cited, not measured here", "molecular_target": "T1, 11beta-HSD1 (Homo sapiens, UniProt P28845)", "T1 construct": "host or cells: human patients (liver), in vivo", "T1 sequence (P28845 whole entry)": "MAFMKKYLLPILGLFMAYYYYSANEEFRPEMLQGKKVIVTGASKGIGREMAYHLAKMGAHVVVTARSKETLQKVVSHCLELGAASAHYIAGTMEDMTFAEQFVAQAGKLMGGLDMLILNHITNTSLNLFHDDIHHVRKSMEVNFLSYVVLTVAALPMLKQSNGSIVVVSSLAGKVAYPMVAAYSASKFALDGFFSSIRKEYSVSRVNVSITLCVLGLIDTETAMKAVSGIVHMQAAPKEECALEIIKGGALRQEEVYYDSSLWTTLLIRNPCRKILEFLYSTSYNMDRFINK", "conditions": "mildly overweight individuals with type 2 diabetes; seven day treatment; versus placebo", "data": [{"compound": "CC1(C)[C@@H](OC(=O)CCC(=O)O)CC[C@]2(C)[C@H]3C(=O)C=C4[C@@H]5C[C@@](C)(C(=O)O)CC[C@]5(C)CC[C@@]4(C)[C@]3(C)CC[C@@H]12", "note": "[carbenoxolone]", "values": [{"measurement": "hepatic glucose production", "value": "decrease in hepatic glucose production"}]}]}
